Patent US12297502B2, “Methods and compositions for detecting and diagnosing diseases and conditions” (Stealth BioTherapeutics Inc., priority 2013, dated 2025)

Key:
[1] = tested on: plasma membrane of several mammalian cell types; conditions: energy-independent manner; Zhao et al., J. Pharmacol Exp Ther., 304:425-432, 2003; cited from earlier work
mu-opioid receptor = mu-opioid receptor (Homo sapiens, UniProt P35372); experiment: mu-opioid receptor agonist activity; conditions: stated in the description, no test described
Sequence of mu-opioid receptor (P35372 whole entry, species assumed): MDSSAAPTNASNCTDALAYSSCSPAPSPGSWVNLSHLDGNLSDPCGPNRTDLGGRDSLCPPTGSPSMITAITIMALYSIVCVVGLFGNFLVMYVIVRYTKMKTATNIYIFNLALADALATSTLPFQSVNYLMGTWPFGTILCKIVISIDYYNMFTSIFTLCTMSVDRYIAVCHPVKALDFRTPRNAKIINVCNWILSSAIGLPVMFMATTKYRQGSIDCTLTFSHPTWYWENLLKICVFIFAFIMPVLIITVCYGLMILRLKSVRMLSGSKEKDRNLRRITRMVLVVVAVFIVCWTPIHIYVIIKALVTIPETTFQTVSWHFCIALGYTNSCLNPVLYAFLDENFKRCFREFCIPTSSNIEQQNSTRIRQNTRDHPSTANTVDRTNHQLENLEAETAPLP

[2] = tested on: heart mitochondrial cardiolipin; experiment: 18:2 cardiolipin in left ventricle heart muscle, dog model of heart failure (shotgun lipidomics); format: in vivo; conditions: HF dogs, 0.5 mg/kg/day intravenously, 12 weeks, versus normal dogs (NL) and untreated HF dogs (HF-CON)
Source text: In this Example, the effect of aromatic-cationic peptide such as D-Arg-2′6′-Dmt-Lys-Phe-NH2 on heart mitochondrial cardiolipin levels in dogs with coronary microembolization-induced heart failure will be investigated.
Heart failure will be induced in dogs via multiple sequential intracoronary microembolizations as described in Sabbah, et al., Am J Physiol. (1991) 260:H1379-84, herein incorporated by reference in its entirety. Half the dogs will be subsequently treated with the mitochondrial peptide; the other half will be treated with drug vehicle and serve as controls. Peptide treatment will be started upon induction of heart failure (HF), defined as left ventricular ejection fraction of approximately 30%. The daily dose of the peptide will be 0.5 mg/kg/day administered intravenously. At the end of the treatment phase (12 weeks) dogs in both the vehicle and treatment groups will be sacrificed and a sample of heart muscle from the left ventricle will be removed, washed with saline, and immediately frozen and stored at −80° C. For cardiolipin analysis, lipids will be extracted from the heart tissue sample with a chloroform/methanol solution (Bligh Dyer extraction). […]

[3] = tested on: dogs with coronary microembolization-induced heart failure; experiment: LV function and mitochondrial ATP synthesis, dog model of heart failure; format: in vivo; conditions: HF dogs, chronic treatment
TAZ1 mRNA = TAZ1 mRNA in LV tissue by real-time PCR, dog model of heart failure; format: in vivo; conditions: HF dogs, 0.5 mg/kg subcutaneous once daily, three months, normalized to GAPDH, printed as e.g. about ... or more
Source text: In this Example, the effect of the aromatic-cationic peptide D-Arg-2′6′-Dmt-Lys-Phe-NH2 on cardiolipin remodeling enzymes, MLCL AT1, ALCAT1, and TAZ1 in dogs with coronary microembolization-induced heart failure will be investigated.
Heart failure will be induced in dogs via multiple sequential intracoronary microembolizations as described in Sabbah, et al., Am J Physiol. (1991) 260:H1379-84, herein incorporated by reference in its entirety.
Twelve dogs will be subject to coronary microembolization-induced heart failure (LV ejection fraction ˜30%). Subjects will be randomized into D-Arg-2′6′-Dmt-Lys-Phe-NH2-treated and control groups for a three-month trial. Subjects will receive subcutaneous injections of D-Arg-2′6′-Dmt-Lys-Phe-NH2 (0.5 mg/kg once daily, n=6) or saline (Untreated-HF Control, n=6). RNA will be prepared from LV tissue of all subjects at the end of the treatment phase and from the LV of six normal subject controls. Levels of TAZ1 mRNA will be determined by real-time PCR. Changes in mRNA levels will be expressed as fold reduction using the CT Method, with normalization to a […] (GAPDH) internal control.

[4] = cited from earlier work

In the case of 2′,6′-Dmt-D-Arg-Phe-Lys-NH2, the “penetration of cell membranes” value [1] is given as “readily penetrates”.

In the case of D-Arg-2′6′-Dmt-Lys-Phe-NH2, the “mu-opioid receptor agonist activity” value (mu-opioid receptor) is reported as “does not have mu-opioid receptor agonist activity”, the “levels of 18:2 cardiolipin” value [2] is reported as “normalize” and the LV function [3] is reported as “improved”. For the same substance, the “rate of mitochondrial ATP synthesis” value [3] was “improved” and the “attenuation of the decrease of TAZ1 mRNA” value (TAZ1 mRNA) was 1-1.23 fold.

For cardiolipin, the pK2 ([4]; ionization of both phosphates) is given as > 7.5 and the pK1 ([4]; ionization of one phosphate) is given as 3.
